Here are results for one compound from patent US12492373B2, “Production method for nerve tissue” (Racthera Co., Ltd., priority 2014, dated 2025).

The structures appear in SMILES notation.

Assay [1] deals with human iPS cells (Ff-I01 strain). The assay can be described thus: Neural tissue / neuroepithelium formation in cell aggregates, bright field observation. The assay is classed as cell-based. The following applies: StemFit AK03N; SAG 300 nM for 24, 48, 72 or 96 hr in step 1, SAG 500 nM in step 2, BMP4 1.5 nM; day 19. On the procedure:
At the time of the start of suspension culturing (day 0 after the start of suspension culturing, […]), Y27632 ([…]) were added to the above serum-free medium (FIG. 22). By day 2 after the start of suspension culturing, a cell aggregate was formed (step 2 completed, step 3 start) under any conditions. On day 3 or later from the start of suspension culturing, BMP4 was added under 3 conditions including the following conditions 1-3. • Condition 1: (+BMP4 addition once) On day 3 of suspension culturing, a medium (50 μl) free of Y27632 and SAG, and containing human recombinant BMP4 (manufactured by R&D) was added such that the final concentration of exogenous human recombinant BMP4 was 1.5 nM (55 ng/ml). On day 6 or later from the start of suspension culturing, a half amount of the medium was changed to a serum-free medium free of Y27632, SAG and human recombinant BMP4. • Condition 2: (+BMP4 addition twice) On day 3 of suspension culturing, a medium (50 μl) free of Y27632, SAG and containing human recombinant BMP4 (manufactured by R&D) was added such that the final concentration of exogenous human recombinant BMP4 was 1.5 nM (55 ng/ml). On day 6 from the start of suspension culturing, 50 μl of the medium was discarded, and 50 μl of a medium free of Y27632 and SAG and containing human recombinant BMP4 (manufactured by R&D) was added to maintain the final concentration of exogenous human recombinant BMP4 at 1.5 nM (55 ng/ml). On day 9 or later from the start of suspension culturing, a half amount of the medium was changed with a serum-free medium free of Y27632, SAG, and human recombinant BMP4. • Condition 3: (+BMP4 addition three times) On day 3 of suspension culturing, a medium (50 μl) free of Y27632, SAG and containing human recombinant BMP4 (manufactured by R&D) was added such that the final concentration of exogenous human recombinant BMP4 was 1.5 nM (55 ng/ml). On days 6 and 9 from the start of suspension culturing, 50 μl of the medium was discarded, and 50 μl of a medium free of Y27632 and SAG and containing human recombinant BMP4 (manufactured by R&D) was added to maintain the final concentration of exogenous human recombinant BMP4 at 1.5 nM (55 ng/ml). On day 12 or later from the start of suspension culturing, a half amount of the medium was changed with a serum-free medium free of Y27632, SAG and human recombinant BMP4. […]
On day 3 after the start of suspension culturing, a medium (50 μl) free of Y27632 and SAG, and containing human recombinant BMP4 (manufactured by R&D) was added such that the final concentration of exogenous human recombinant BMP4 was 1.5 nM (55 ng/ml) or 5 nM (183 ng/ml). […]

For assay [2] the test system is unchanged. The experiment in a line: Immunostaining of aggregate sections for retinal tissue marker Chx10. Type of assay: cell-based. The following applies: StemFit AK03N, day 19. From the text: Cell aggregates on day 16 after the start of suspension culturing were fixed with 4% para-formaldehyde to prepare frozen sections. These frozen sections were immunostained for Chx10 (anti-Chx10 antibody, Exalpha, sheep), which is one of the retinal tissue markers. These immunostained sections were observed under a fluorescence microscope.
Cell aggregates on day 16 after the start of suspension culturing were fixed with 4% para-formaldehyde to prepare frozen sections. These frozen sections were immunostained for Chx10 (anti-Chx10 antibody, Exalpha, sheep), which is one of the retinal tissue markers, and observed under a fluorescence microscope. […] In addition, the proportion of Chx10-positive cells in the total cells is about 80% under conditions with the addition of BMP4 twice to maintain the final concentration of 5 nM (FIG. 23, D)
The cell aggregates on day 19 after the start of suspension culturing were fixed with 4% para-formaldehyde to prepare frozen sections. These frozen sections were immunostained for Chx10 (anti-Chx10 antibody, Exalpha, sheep), which is one of the retinal tissue markers. These immunostained sections were observed under an inverted fluorescence microscope. As a result, the proportion of Chx10-positive cells in the total cells is about 70% under conditions with the addition of BMP4 twice to maintain the final concentration of 1.5 nM ([…]). In addition, the proportion of Chx10-positive cells in the total cells is about 90% under conditions with the addition of BMP4 twice to maintain the final concentration of 5 nM (FIG. 34, D).
The thus-prepared cell aggregates on day 19 after the start of suspension culturing were fixed with 4% para-formaldehyde to prepare frozen sections. These frozen sections were immunostained for Chx10 (anti-Chx10 antibody, Exalpha, sheep), which is one of the retinal tissue markers, and observed under a fluorescence microscope.

`CNC1CCC(N(Cc2cccc(-c3ccncc3)c2)C(=O)c2sc3ccccc3c2Cl)CC1` (stereo not drawn) [SAG]: the “cell aggregate growth and neuroepithelium formation” value in assay [1] is reported as “neuroepithelium can be formed efficiently”. The “proportion of Chx10-positive cells in the total cells” value in assay [2] (SAG 300 nM for 48, 72 or 96 hr in step 1, SAG 500 nM in step 2, BMP4 1.5 nM) was “about 80%”; in assay [2] (SAG 300 nM for 24 hr in step 1, SAG 500 nM in step 2, BMP4 1.5 nM), “about 10%”.
